≈ marks a conversion by molar mass, not a printed value.
Legend:
Assay type in all cases: cell-based
[1] = test system: Candida glabrata ATCC 48435; assay: Antifungal activity, growth inhibition (alamar Blue), Candida glabrata; details: GI80 versus drug non-addition growth
Experimental: (§1) Measuring method of the antifungal activities of the compounds of the present invention carried out in accordance with Japanese Journal of Medical Mycology, 40, 243-246, 1999, Japanese Society for Medical Mycology Standardization Committee, (alamar Blue), and the or 80% growth inhibition (GI50 or GI80) concentration (μg/ml) for drug non-addition growth as the positive control was measured.

[2] = test system: Candida krusei ATCC 44507; assay: Antifungal activity, growth inhibition (alamar Blue), Candida krusei; details: for GI50, 50% growth inhibition concentration, Candida krusei ATCC 44507: GI50 versus drug non-addition growth
Experimental: as §1

[3] = test system: Candida albicans ATCC MYA-573; assay: Antifungal activity, growth inhibition (alamar Blue), Candida albicans; details: GI50 versus drug non-addition growth
Experimental: as §1

[4] = test system: Saccharomyces cerevisiae AY-14; assay: Antifungal activity, growth inhibition (alamar Blue), Saccharomyces cerevisiae; details: GI80 versus drug non-addition growth
Experimental: as §1

Row | GI50, 50% growth inhibition concentration, Candida krusei ATCC 44507 [2] [mg/L] | GI50, 50% growth inhibition concentration, Candida albicans ATCC MYA-573 [3] [mg/L] | SMILES | GI80, 80% growth inhibition concentration, Candida glabrata ATCC 48435 [1] [mg/L] | GI80, 80% growth inhibition concentration, Saccharomyces cerevisiae AY-14 [4] [mg/L] | GI50 ([2]; Pichia kudriavzevii, ATCC44507, GI50 versus drug non-addition growth, read-out: GI50, 50% growth inhibition concentration, Candida krusei ATCC 44507) [mg/L] | GI50 ([3]; read-out: GI50, 50% growth inhibition concentration, Candida albicans ATCC MYA-573) [mg/L]
1 | >4 | 1 (≈ 2.58 µM) | Cc1c(-c2ccccc2)c(N2CC[C@H](N(C)C)C2)n2cc(C(C)C)nc2c1C#N [Example 8] | 0.125 (≈ 0.323 µM) | 2 (≈ 5.16 µM) | – | –
2 | >4 | 0.25 (≈ 0.623 µM) | Cc1c(-c2ccccc2)c(N2CC[C@H](N(C)C)C2)n2cc(C(C)(C)C)nc2c1C#N [Example 9, (3′S)-2-tert-Butyl-5-(3-dimethylaminopyrrolidin-1-yl)-7-methyl-6-phenylimidazo[1,2-a]pyridine-8-carbonitrile] | 0.25 (≈ 0.623 µM) | 0.125 (≈ 0.311 µM) | – | –
3 | >4 | 4 (≈ 9.94 µM) | Cc1c(-c2ccccc2)c(N2CC[C@H](N(C)C)C2)n2nc(C(C)(C)C)nc2c1C#N [Example 25] | 0.125 (≈ 0.311 µM) | 0.063 (≈ 0.157 µM) | – | –
4 | 4 (≈ 10.3 µM) | 4 (≈ 10.3 µM) | C=C(C)c1nc2c(C#N)c(C)c(-c3ccccc3)c(N3CC[C@H](N(C)C)C3)n2n1 [Example 33] | 0.008 (≈ 0.0207 µM) | 0.004 (≈ 0.0103 µM) | – | –
5 | >4 | 0.5 (≈ 0.983 µM) | Cc1c(-c2ccccc2)c(N2CC[C@H](N(C)C)C2)n2nc(C(C)(C)COCc3ccccc3)nc2c1C#N [Example 39] | 0.25 (≈ 0.491 µM) | 0.063 (≈ 0.124 µM) | – | –
6 | 4 (≈ 9.96 µM) | 4 (≈ 9.96 µM) | Cc1c(-c2ccccc2)c(N2CC[C@H](N(C)C)C2)n2nc(C(C)(C)C)cc2c1C#N [Example 62] | 2 (≈ 4.98 µM) | 2 (≈ 4.98 µM) | – | –
7 | – | – | OC(Cn1cncn1)(Cn1cncn1)c1ccc(F)cc1F [Fluconazole, reference compound] | 4 (≈ 13.1 µM) | 4 (≈ 13.1 µM) | > 4 | > 4
